From PubChem BioAssay AID1033 (Sanford-Burnham Center for Chemical Genomics, 2008) come the findings set out here.

By Kd is commonly meant the free concentration of one partner at which half of the binding sites on the other are occupied at equilibrium, for simple one-to-one binding.

The assay deals with Chaperone protein DnaK (Escherichia coli (strain K12)) (UniProt P0A6Y8). The assay can be described thus: E. coli DnaK SBD ligand binding – biophysical, NMR, chaperone (AID 1033). To be noted: Purified DnaK SBD.
Sequence of Chaperone protein DnaK (Escherichia coli (strain K12)) (P0A6Y8 whole entry, looked up): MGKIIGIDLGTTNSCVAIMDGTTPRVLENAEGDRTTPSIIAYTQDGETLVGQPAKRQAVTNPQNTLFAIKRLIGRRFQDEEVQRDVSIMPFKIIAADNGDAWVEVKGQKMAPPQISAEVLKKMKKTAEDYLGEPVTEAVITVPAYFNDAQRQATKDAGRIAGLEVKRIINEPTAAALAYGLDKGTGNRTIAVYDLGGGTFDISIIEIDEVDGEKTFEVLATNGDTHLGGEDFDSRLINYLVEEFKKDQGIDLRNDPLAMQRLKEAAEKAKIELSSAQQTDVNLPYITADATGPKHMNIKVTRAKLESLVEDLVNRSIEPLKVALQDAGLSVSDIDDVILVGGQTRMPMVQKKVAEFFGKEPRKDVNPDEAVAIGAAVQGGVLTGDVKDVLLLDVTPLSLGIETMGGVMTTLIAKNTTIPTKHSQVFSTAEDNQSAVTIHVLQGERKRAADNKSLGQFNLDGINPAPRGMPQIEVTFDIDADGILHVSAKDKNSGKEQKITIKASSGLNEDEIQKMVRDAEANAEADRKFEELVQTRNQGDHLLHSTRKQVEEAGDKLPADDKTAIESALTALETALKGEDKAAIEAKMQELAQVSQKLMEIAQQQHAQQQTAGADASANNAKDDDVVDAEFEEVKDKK

Active and inactive are the calls of the source. No rule for the calls is given here. Some results are limits rather than exact numbers.

Regarding `CC(=O)O[C@@H]1CC2C(C)(C)[C@@H](O)CC[C@]2(C)C2CC[C@@]3(C)[C@H](c4ccoc4)OC(=O)[C@H]4O[C@]43[C@@]21C` (stereo partly specified), the Kd was > 4 mM (inactive).
In the case of `Oc1ccccc1N1CCOCC1` it was > 4 mM (inactive); in that of `CSc1ccccc1C(=O)N1CCOCC1`, > 4 mM (inactive); in that of `Cn1cc(Cl)c(C(=O)NC2CCCCCC2)n1`, > 4 mM (inactive).
In the case of `CC(=O)Nc1c(Cl)cnn(-c2ccccc2)c1=O`, the Kd is > 4 mM (inactive).
The value for `CC(=O)NC(=S)Nc1ccc(N(C)C(C)=O)cc1` was > 4 mM (inactive); that for `NC(CSCSCC(N)C(=O)O)C(=O)O` (stereo unspecified) was > 4 mM (inactive).
In the case of `O=C(O)c1cnn2ccccc12` it was > 4 mM (inactive).
As to `CC1(C)N=C2C(=[N+]1[O-])CCC/C2=N\O`, the Kd is > 4 mM (inactive).
On to `CC1(C)CC(=O)c2cnn(-c3nc4ccccc4[nH]3)c2C1`, for which the Kd is > 4 mM (inactive).
In the case of `NC(=O)CS(=O)(=O)c1ccc2ccccc2c1` it was > 4 mM (inactive); in that of `O=C1c2ccncc2C(=O)N1CO`, > 4 mM (inactive); in that of `CSCCNC(C)=O`, > 4 mM (inactive).
As for `CN1C(=O)CC(=O)N(C)c2ccccc21`, the Kd was > 4 mM (inactive).
In the case of `Cc1ncc(C(=O)O)c(-c2ccccc2)n1` it was > 4 mM (inactive); in that of `COc1cc2nc(-c3cccs3)oc(=O)c2cc1OC`, > 4 mM (inactive).
The value for `CC(=O)Nc1ccc(N2C(=O)C=CC2=O)cc1C` was > 4 mM (inactive); that for `CSc1nc(-c2ccccc2)ccc1C(N)=O` was > 4 mM (inactive); that for `O=C1C=C(Nc2ccccc2O)c2ccccc2C1=O` was > 4 mM (inactive).
As for `CN1CCN(CC(=O)Nc2ccccc2)CC1`, the Kd was > 4 mM (inactive).
In the case of `Cc1ccc(C(=O)Nn2cnnc2)c(Cl)c1` it was > 4 mM (inactive); in that of `COC(=O)C[C@H]1C2(C)CC34OC5(C)O[C@@]6([C@H](OC(C)=O)C(OC(C)=O)[C@]7(C)C(/C(=C(/O)C(C)C)C(=O)O[C@H]7c7ccoc7)[C@@]6(O5)[C@H](OC(C)=O)[C@@]3(O)C2OC(=O)C(C)C)[C@]14C` (stereo partly specified), > 4 mM (inactive).
In the case of `O=C(O)C1CC(=O)N(CCc2ccc(Cl)cc2)C1` (stereo unspecified) it was > 4 mM (inactive); in that of `Cc1onc(-c2c(F)cccc2Cl)c1C(N)=O`, > 4 mM (inactive).
For the compound `CN1CCN(C(=O)/C=C\C(=O)O)CC1`, the Kd was > 4 mM (inactive).
Turning to `Fc1ccc2onc(C3CCNCC3)c2c1`, the Kd is > 4 mM (inactive).
In the case of `COc1cc(OC)c2c(=O)c(-c3ccc4c(c3)OCO4)coc2c1`, the Kd was > 4 mM (inactive).
The value for `O=C(O)c1ccc(-n2cccn2)cc1` was > 4 mM (inactive); that for `CCOC(=O)CC1NCCNC1=O` (stereo unspecified) was > 4 mM (inactive).
In the case of `NC(=O)c1oc2ccccc2c1N` it was > 4 mM (inactive).
On to `Cc1ccc(-c2nc(-c3cccnc3)no2)cc1`, for which the Kd was > 4 mM (inactive).
As to `CC(C)(C)NC(=O)N1CCC(C(=O)O)CC1`, the Kd is > 4 mM (inactive).
The value for `NC(=O)Nc1cccc(C(F)(F)F)c1` was > 4 mM (inactive); that for `O=C(O)C(CO)c1ccccc1` (stereo unspecified) was > 4 mM (inactive); that for `C=CCn1c(=S)[nH]c2ccc(Br)cc2c1=O` was > 4 mM (inactive).
For `NC(=O)c1ccc(N2C(=O)CCC2=O)cc1Cl`, the Kd was > 4 mM (inactive).
In the case of `CN1CCC(N2CCN(C)CC2)CC1` it was > 4 mM (inactive); in that of `COc1ccc(C(=O)NCC(=O)O)cc1`, > 4 mM (inactive).
In the case of `NC(=O)c1sc2ccccc2c1Cl`, the Kd was > 4 mM (inactive).
In the case of `CN1CCC(NC(=O)C2CCCO2)CC1` (stereo unspecified) it was > 4 mM (inactive); in that of `CC[C@@]1(O)C[C@H](O[C@H]2C[C@H](N(C)C)[C@H](O)[C@H](C)O2)c2c(cc3c(c2O)C(=O)c2c(O)cccc2C3=O)[C@H]1C(=O)OC`, > 4 mM (inactive).
The value for `O=C(O)C1Cc2ccccc2N1` (stereo unspecified) was > 4 mM (inactive); that for `CC(=O)NC(NC(C)=O)c1ccccc1` was > 4 mM (inactive); that for `O=C(NCO)c1ccc([N+](=O)[O-])cc1` was > 4 mM (inactive).
In the case of `C(=N\c1ncn[nH]1)/c1cccs1` it was > 4 mM (inactive); in that of `Oc1ccc2nonc2c1`, > 4 mM (inactive).
For `CSc1nc(C)c(Oc2ccccc2)c(=O)n1C`, the Kd was > 4 mM (inactive).
The value for `CSc1cccc(NC(=O)c2c(Cl)cnn2C)c1` was > 4 mM (inactive); that for `CCN1C(=O)N(CO)C2C1N(C)C(=O)N2C` (stereo unspecified) was > 4 mM (inactive).
In the case of `Cc1cc(NC(=O)CS(=O)(=O)c2ccccc2)no1` it was > 4 mM (inactive); in that of `O=C1C2CCCCC2C(=O)N1c1nccs1` (stereo unspecified), > 4 mM (inactive).
Regarding `O=C(O)/C=C(\CC(=O)O)C(=O)O`, the Kd was > 4 mM (inactive).
`O=C(O)CNS(=O)(=O)c1cccs1`: the Kd is > 4 mM (inactive).
For the compound `Cc1cc(C)c(NC(=O)CN2CCC(O)CC2)c(C)c1`, the Kd is > 4 mM (inactive).
In the case of `COc1ccc(C(=O)/C=C2\NC(=S)NC2=O)cc1` it was > 4 mM (inactive); in that of `COc1ccc(NC(=O)CSc2nccc(=O)[nH]2)cc1`, > 4 mM (inactive); in that of `O=C1c2ccccc2-c2ncnc3cccc1c23`, > 4 mM (inactive).
The value for `NCc1ccc2occc2c1` was > 4 mM (inactive); that for `CCOC(=O)c1c(C)nc2ncccn12` was > 4 mM (inactive); that for `S=c1ccc(N2CCCCC2)n[nH]1` was > 4 mM (inactive).
With `NC(=O)c1cccc(N2C(=O)C=CC2=O)c1`, the Kd was > 4 mM (inactive).
In the case of `O=S(=O)(Nc1ccc2c(c1)OCCO2)c1cccs1` it was > 4 mM (inactive); in that of `OC1CCN(Cc2ccc[nH]2)CC1`, > 4 mM (inactive); in that of `Cc1cc(F)c(F)c(C(=O)NC2CC2)c1Cl`, > 4 mM (inactive).
Take `CC(=O)Nc1cc2c(cc1C(=O)C(C)C)OCCO2`: the Kd is > 4 mM (inactive).
In the case of `O=C(C1CCCCC1)N1CCN(c2ccccc2F)CC1`, the Kd was > 4 mM (inactive).
As to `Nc1nnc(SCc2cccnc2)s1`, the Kd was > 4 mM (inactive).
Consider `O=C(O)c1ccc2c(c1)OCO2`, for which the Kd is > 4 mM (inactive).
The value for `CC(C)(C)CC(=O)NNC(=O)c1cnccn1` was > 4 mM (inactive).
In the case of `O=C1CCC(=O)N1c1ccc(F)cc1` it was > 4 mM (inactive); in that of `Nc1ccc(-n2cccc2)cc1`, > 4 mM (inactive).
The value for `O=P(c1ccccc1)(c1ccccc1)C1CCOCC1` was > 4 mM (inactive).
As to `O=C(c1cc(Cl)cc(Cl)c1)N1CCOCC1`, the Kd is > 4 mM (inactive).
The value for `O=C(Nn1cnnc1)c1cc2c(s1)CCCCC2` was > 4 mM (inactive).
Turning to `COc1cc(O)cc(/C=C/c2ccccc2)c1`, the Kd is > 4 mM (inactive).
The value for `COC(=O)c1sc(N)nc1C` was > 4 mM (inactive).
